{"source": "patent US7132542B2", "about": "“Compounds for the treatment of male erectile dysfunction” (Bristol-Myers Squibb Company, priority 2003, dated 2006)", "key": {"[1]": {"test_system": "cloned mammalian (mSlo or hSlo) BK channel", "assay": "Assay for BK channel openers: two-electrode voltage clamp of BK-mediated outward current in Xenopus oocytes", "format": "cell-based", "conditions": "percent increase over BK current in controls, voltage step to +140 mV, IBTX-sensitive current", "experimental": "The ability of the compounds of the invention to open BK channels and increase whole-cell outward (K^+) BK-mediated currents was assessed under voltage-clamp conditions by determining their ability to increase cloned mammalian (mSlo or hSlo) BK-mediated outward current heterologously expressed in Xenopus oocytes [Butler, A., et al., Science 1993, 261, 221–224; Dworetzky, S. I., et al., Mol. Brain Res. 1994, 27, 189–193; Gribkoff, V. K., et al., Mol. Pharmacol. 1996, 50, 206–217]. The two BK constructs employed represent nearly structurally identical homologous proteins, and have proven to be pharmacologically indistinguishable in our tests. To isolate BK current from native (background, non-BK) current, the specific and potent BK channel-blocking toxin iberiotoxin (IBTX) [Galvez, A., et al., J. Biol. Chem. 1990, 265, 11083–11090] was employed at a supramaximal concentration, e.g., 50–100 nanomolar (“nM”). The relative contribution of BK channel-mediated current to total outward current was determined by subtraction of the current remaining in the presence of IBTX (non-BK current) from the current profiles obtained in all other experimental conditions (control, drug, and wash) [Gribkoff, V. K. et al., Mol. Pharmacol. 1996, 50, 206–217]. […] All compounds were tested in 5–10 oocytes and are reported at the indicated concentration of 20 micromolar (“μM”) (or as otherwise indicated); the effect of the selected compounds of the invention on BK current was expressed as the percent of control IBTX-sensitive current at a single transmembrane voltage (+140 mV) and is listed in Table 1. Recordings were accomplished using standard two-electrode voltage clamp techniques [Stuhmer, W., et al., Methods in Enzymology, 1992, 207, 319–339]; voltage-clamp protocols consisted of 500–750 milliseconds (“ms”) duration step depolarizations, from a holding potential of −60 mV, to a final voltage up to +140 mV in 20 mV steps. The experimental media (modified Barth's solution) consisted of millimolar (“mM”): NaCl (88), NaHCO3 (2.4), KCl (1.0), HEPES (10), MgSO4 (0.82), Ca(NO3)2 (0.33), CaCl2 (0.41); pH 7.5."}, "[2]": {"test_system": "rabbit corpus cavernosum tissue", "assay": "Relaxation of rabbit corpus cavernosum strips precontracted with phenylephrine", "conditions": "Oryctolagus cuniculus; inhibition of phenylephrine (3 μM)-induced force as compared to vehicle control; read-out: % Inhibition of force (RCC strips)", "experimental": "The ability of the compounds of the invention to relax rabbit corpus cavernosum tissue as a model for the treatment of erectile dysfunction is described as follows. New Zealand white rabbits (3.4–3.7 kg) were euthanized by sodium pentobarbital (100 mg/kg) overdose. The penis from each animal was rapidly removed and immersed in a cold oxygenated modified Krebs Henseleit bicarbonate buffer. The penis' outer tunica was removed and the corpus cavernosum smooth muscle obtained and cut into strips approximately 3–5 mm long. The strips were suspended in tissue baths containing physiological salt solution (see above), and allowed to equilibrate for at least one hour under resting tension of 1.0 gram. Isometric force was measured as described above. Tissue strips were stimulated with the α-agonist phenylephrine (3 μM) and allowed to reach a steady level of force prior to the addition of test compounds. The results are expressed as the percentage inhibition of phenylephrine-induced force as compared to vehicle control."}, "[3]": {"test_system": "rat small intestine tissue", "assay": "Relaxation of rat small intestine (ileum) segments", "design": "concentration or dose not given beside the values", "conditions": "integral of nifedipine-sensitive force, 30 min post-compound addition", "from_the_text": "The ability of the compounds of the invention to relax rat small intestine tissue as a model for the treatment of irritable bowel syndrome is described as follows. Male rats (Harlan, Sprague Dawley, 250–350 g) were sacrificed by decapitation. A portion of small intestine (ileum) was removed and the attached connective tissues and intestinal contents removed. The ileum was cut into segments of ≦1 cm in length. The segments were mounted longitudinally between fixed hooks in organ baths containing warm (37° C.) physiological salt solution (composition in mM: NaCl 118.4, KCl 4.7, KH2PO4 1.2, MgSO4 1.2, CaCl2 1.8, Glucose 10.1, NaHCO3 25; gassed with 95% O2/5% CO2, pH 7.4). A stable tension of ˜1.5 g was maintained in the tissue segments during the equilibration period of 45 minutes. Changes in muscle tension were measured with isometric force transducers (Grass, FT-03C) and recorded using AcqKnowledge data acquisition system (AcqKnowledge for MP100WS, Biopac Systems Inc., Goleta, Calif.). Compound or vehicle was added in the baths for 30 minutes. “Zero” active force was established at the end of the experiment using nifedipine (20 μM). The effects of compounds or vehicle on force was determined by measuring the integral of nifedipine-sensitive force (including resting tone and spontaneous contractions) pre- and 30 min post-compound (or vehicle) addition. Results are expressed as the percentage inhibition of force. DMSO vehicle inhibited force (integral) by −0.6±3.0% (n=25)."}}}
{"compound": "O=C(CCCN1CCN(c2ccccn2)CC1)Nc1ccc(Sc2c(-c3cc(Cl)ccc3O)c3cc(C(F)(F)F)ccc3[nH]c2=O)cc1", "note": "[Example 16, N-[4-[[4-(5-chloro-2-hydroxyphenyl)-1,2-dihydro-2-oxo-6-(trifluoromethyl)-3-quinolinyl]thio]phenyl]-4-(2-pyridinyl)-1-piperazinebutanamide]", "values": [{"measurement": "% MaxiK opening", "setting": "[1]; at 1 μM", "value": "197^⋄ %"}, {"measurement": "inhibition", "setting": "[2]", "value": 37, "unit": "%"}]}
{"compound": "O=C(CCCN1CCCC1)Nc1ccc(Sc2c(-c3cc(Cl)ccc3O)c3cc(C(F)(F)F)ccc3[nH]c2=O)cc1", "note": "[Example 5, N-{4-[4-(5-Chloro-2-hydroxy-phenyl)-2-oxo-6-trifluoromethyl-1,2-dihydro-quinolin-3-ylsulfanyl]-phenyl}-4-pyrrolidin-1-yl-butyramide]", "values": [{"measurement": "% Inhibition of force (RSI strips)", "setting": "[3]", "value": 65, "unit": "%"}, {"measurement": "% MaxiK opening", "setting": "[1]; at 20 μM", "value": 280, "unit": "%"}, {"measurement": "inhibition", "setting": "[2]", "value": 36, "unit": "%"}]}
{"compound": "CN1CCN(CC(=O)Nc2ccc(Sc3c(-c4cc(Cl)ccc4O)c4cc(C(F)(F)F)ccc4[nH]c3=O)cc2)CC1", "note": "[Example 2, N-{4-[4-(5-Chloro-2-hydroxy-phenyl)-2-oxo-6-trifluoromethyl-1,2-dihydro-quinolin-3-ylsulfanyl]-phenyl}-2-(4-methyl-piperazin-1-yl)-acetamide]", "values": [{"measurement": "% Inhibition of force (RSI strips)", "setting": "[3]", "value": 36, "unit": "%"}, {"measurement": "% MaxiK opening", "setting": "[1]; at 20 μM", "value": 246, "unit": "%"}, {"measurement": "inhibition", "setting": "[2]", "value": 19, "unit": "%"}]}
{"compound": "O=C(CN1CCOCC1)Nc1ccc(Sc2c(-c3cc(Cl)ccc3O)c3cc(C(F)(F)F)ccc3[nH]c2=O)cc1", "note": "[Example 1, N-{4-[4-(5-Chloro-2-hydroxy-phenyl)-2-oxo-6-trifluoromethyl-1,2-dihydro-quinolin-3-ylsulfanyl]-phenyl}-2-morpholin-4-yl-acetamide]", "values": [{"measurement": "% Inhibition of force (RSI strips)", "setting": "[3]", "value": 51, "unit": "%"}, {"measurement": "% MaxiK opening", "setting": "[1]; at 1 μM", "value": "296^⋄ %"}, {"measurement": "inhibition", "setting": "[2]", "value": 34, "unit": "%"}]}
{"compound": "CN(C)CCN(C)CC(=O)Nc1ccc(Sc2c(-c3cc(Cl)ccc3O)c3cc(C(F)(F)F)ccc3[nH]c2=O)cc1", "note": "[Example 7, N-[4-[[4-(5-chloro-2-hydroxyphenyl)-1,2-dihydro-2-oxo-6-(trifluoromethyl)-3-quinolinyl]thio]phenyl]-2-[[2-(dimethylamino)ethyl]methylamino]acetamide]", "values": [{"measurement": "% Inhibition of force (RSI strips)", "setting": "[3]", "value": 41, "unit": "%"}, {"measurement": "% MaxiK opening", "setting": "[1]; at 20 μM", "value": 231, "unit": "%"}, {"measurement": "inhibition", "setting": "[2]", "value": 16, "unit": "%"}]}
{"compound": "O=C(CCCN1CCC(N2CCCCC2)CC1)Nc1ccc(Sc2c(-c3cc(Cl)ccc3O)c3cc(C(F)(F)F)ccc3[nH]c2=O)cc1", "note": "[Example 15, N-[4-[[4-(5-chloro-2-hydroxyphenyl)-1,2-dihydro-2-oxo-6-(trifluoromethyl)-3-quinolinyl]thio]phenyl]-[1,4′-bipiperidine]-1′-butanamide]", "values": [{"measurement": "% MaxiK opening", "setting": "[1]; at 20 μM", "value": 268, "unit": "%"}]}
{"compound": "CN(C)CCN(C)CCC(=O)Nc1ccc(Sc2c(-c3cc(Cl)ccc3O)c3cc(C(F)(F)F)ccc3[nH]c2=O)cc1", "note": "[Example 12, N-[4-[[4-(5-chloro-2-hydroxyphenyl)-1,2-dihydro-2-oxo-6-(trifluoromethyl)-3-quinolinyl]thio]phenyl]-3-[[2-(dimethylamino)ethyl]methylamino]propanamide]", "values": [{"measurement": "% MaxiK opening", "setting": "[1]; at 20 μM", "value": 489, "unit": "%"}, {"measurement": "inhibition", "setting": "[2]", "value": 29, "unit": "%"}]}
{"compound": "O=C(CCN1CCN(c2ccccn2)CC1)Nc1ccc(Sc2c(-c3cc(Cl)ccc3O)c3cc(C(F)(F)F)ccc3[nH]c2=O)cc1", "note": "[Example 14, N-[4-[[4-(5-chloro-2-hydroxyphenyl)-1,2-dihydro-2-oxo-6-(trifluoromethyl)-3-quinolinyl]thio]phenyl]-4-(2-pyridinyl)-1-piperazinepropanamide]", "values": [{"measurement": "% Inhibition of force (RSI strips)", "setting": "[3]", "value": 24, "unit": "%"}, {"measurement": "% MaxiK opening", "setting": "[1]; at 1 μM", "value": "169^⋄ %"}, {"measurement": "inhibition", "setting": "[2]", "value": 37, "unit": "%"}]}
{"compound": "O=C(CN1CCCC1)Nc1ccc(Sc2c(-c3cc(Cl)ccc3O)c3cc(C(F)(F)F)ccc3[nH]c2=O)cc1", "note": "[Example 6, N-[4-[[4-(5-chloro-2-hydroxyphenyl)-1,2-dihydro-2-oxo-6-(trifluoromethyl)-3-quinolinyl]thio]phenyl]-1-pyrrolidineacetamide]", "values": [{"measurement": "% MaxiK opening", "setting": "[1]; at 20 μM", "value": 291, "unit": "%"}, {"measurement": "inhibition", "setting": "[2]", "value": 28, "unit": "%"}]}
{"compound": "O=C(CN1CCC(N2CCCCC2)CC1)Nc1ccc(Sc2c(-c3cc(Cl)ccc3O)c3cc(C(F)(F)F)ccc3[nH]c2=O)cc1", "note": "[Example 8, N-[4-[[4-(5-chloro-2-hydroxyphenyl)-1,2-dihydro-2-oxo-6-(trifluoromethyl)-3-quinolinyl]thio]phenyl]-[1,4′-bipiperidine]-1′-acetamide]", "values": [{"measurement": "% MaxiK opening", "setting": "[1]; at 20 μM", "value": 283, "unit": "%"}, {"measurement": "inhibition", "setting": "[2]", "value": 45, "unit": "%"}]}
{"compound": "O=C(CCN1CCCC1)Nc1ccc(Sc2c(-c3cc(Cl)ccc3O)c3cc(C(F)(F)F)ccc3[nH]c2=O)cc1", "note": "[Example 4, N-{4-[4-(5-Chloro-2-hydroxy-phenyl)-2-oxo-6-trifluoromethyl-1,2-dihydro-quinolin-3-ylsulfanyl]-phenyl}-3-pyrrolidin-1-yl-propionamide]", "values": [{"measurement": "% MaxiK opening", "setting": "[1]; at 20 μM", "value": 264, "unit": "%"}, {"measurement": "inhibition", "setting": "[2]", "value": 35, "unit": "%"}]}
{"compound": "CN1CCN(CCC(=O)Nc2ccc(Sc3c(-c4cc(Cl)ccc4O)c4cc(C(F)(F)F)ccc4[nH]c3=O)cc2)CC1", "note": "[Example 11, N-[4-[[4-(5-chloro-2-hydroxyphenyl)-1,2-dihydro-2-oxo-6-(trifluoromethyl)-3-quinolinyl]thio]phenyl]-4-methyl-1-piperazinepropanamide]", "values": [{"measurement": "% Inhibition of force (RSI strips)", "setting": "[3]", "value": 70, "unit": "%"}, {"measurement": "% MaxiK opening", "setting": "[1]; at 20 μM", "value": 474, "unit": "%"}, {"measurement": "inhibition", "setting": "[2]", "value": 30, "unit": "%"}]}
{"compound": "O=C(CN1CCN(c2ccccn2)CC1)Nc1ccc(Sc2c(-c3cc(Cl)ccc3O)c3cc(C(F)(F)F)ccc3[nH]c2=O)cc1", "note": "[Example 9, N-[4-[[4-(5-chloro-2-hydroxyphenyl)-1,2-dihydro-2-oxo-6-(trifluoromethyl)-3-quinolinyl]thio]phenyl]-4-(2-pyridinyl)-1-piperazineacetamide]", "values": [{"measurement": "% MaxiK opening", "setting": "[1]; at 10 μM", "value": "116^⋄⋄ %"}, {"measurement": "inhibition", "setting": "[2]", "value": 17, "unit": "%"}]}
{"compound": "CN(C)C1CCN(CC(=O)Nc2ccc(Sc3c(-c4cc(Cl)ccc4O)c4cc(C(F)(F)F)ccc4[nH]c3=O)cc2)CC1", "note": "[Example 10, N-[4-[[4-(5-chloro-2-hydroxyphenyl)-1,2-dihydro-2-oxo-6-(trifluoromethyl)-3-quinolinyl]thio]phenyl]-4-(dimethylamino)-1-piperidineacetamide]", "values": [{"measurement": "% Inhibition of force (RSI strips)", "setting": "[3]", "value": 54, "unit": "%"}, {"measurement": "% MaxiK opening", "setting": "[1]; at 20 μM", "value": 292, "unit": "%"}, {"measurement": "inhibition", "setting": "[2]", "value": 19, "unit": "%"}]}
{"compound": "O=C(CCN1CCOCC1)Nc1ccc(Sc2c(-c3cc(Cl)ccc3O)c3cc(C(F)(F)F)ccc3[nH]c2=O)cc1", "note": "[Example 3, N-{4-[4-(5-Chloro-2-hydroxy-phenyl)-2-oxo-6-trifluoromethyl-1,2-dihydro-quinolin-3-ylsulfanyl]-phenyl}-3-morpholin-4-yl-propionamide]", "values": [{"measurement": "% Inhibition of force (RSI strips)", "setting": "[3]", "value": 50, "unit": "%"}, {"measurement": "% MaxiK opening", "setting": "[1]; at 20 μM", "value": 453, "unit": "%"}, {"measurement": "inhibition", "setting": "[2]", "value": 22, "unit": "%"}]}
